This is an account of results in patent US6716837B1, “Heterocyclic compounds for the treatment of migraine” (NPS Allelix Biopharmaceuticals, Inc., priority 1999, dated 2004).

A value given as a limit tells only on which side of the number the result lay.

T1 sequence (P28221 whole entry): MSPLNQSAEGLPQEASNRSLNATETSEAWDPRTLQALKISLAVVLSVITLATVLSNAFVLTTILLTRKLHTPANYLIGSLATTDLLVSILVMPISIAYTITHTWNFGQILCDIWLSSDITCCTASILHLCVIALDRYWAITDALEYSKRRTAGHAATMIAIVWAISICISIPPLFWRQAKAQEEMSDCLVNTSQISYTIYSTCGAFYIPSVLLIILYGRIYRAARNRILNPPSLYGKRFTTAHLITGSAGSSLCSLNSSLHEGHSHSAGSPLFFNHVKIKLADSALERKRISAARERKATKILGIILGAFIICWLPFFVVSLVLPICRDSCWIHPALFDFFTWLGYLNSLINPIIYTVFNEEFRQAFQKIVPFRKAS

The first assay concerns the target T1, 5-HT1D receptor (Homo sapiens, UniProt P28221).
T1 construct: expressed in transfected cells
The experiment in a line: 5-HT1D receptor binding, inhibition of 3H-serotonin binding. The following applies: 100 nM test compound; 3H-serotonin 1 nM; membranes from recombinant cells; 60 minute incubation at 22° C.; read-out: percent inhibition of binding of the radio ligand at the 5-HT1D receptor. The protocol:
Selected compounds of the previous examples, as well as reference compounds, were evaluated for binding affinity using cell types receptive specifically to 5-HT1D and 5-HT1B ligands. The assay protocol generally entailed the incubation of membranes prepared from cells expressing the 5-HT1D or 5-HT1B subtype of 5-HT receptors with ^3H-serotonin (1 nM for 5-HT1D and 2.5 nM for 5-HT1B). Specific concentrations of the test compound were incubated with the radio ligand and the membrane homogenates prepared from the recombinant cells. After a 60 minute incubation at 22° C., the incubation was terminated by vacuum filtration. The filters were washed with buffer and counted for radioactivity using liquid scintillation spectroscopy. The affinity of the test compound for the 5-HT1D receptor is expressed as the amount (in percent) of binding of the radio ligand that is inhibited in the presence of 100 nM of test compound. A greater percent inhibition indicates greater affinity for the 5-HT1D receptor.
As for `Brc1ccc2ccn(C3CCNCC3)c2c1` [Example 10c, 6-Bromo-1-(4-piperidinyl)-indole], the inhibition at 0.1 µM is > 50%.

Consider `CC(C)n1ccc2ccc(CCN(C)C)cc21` [Example 2, 6-(2-(N,N-Dimethylamino)ethyl)-1-isopropyl-indole], for which the inhibition at 0.1 µM is > 90%.

For the compound `CN1CC=C(c2ccc3ccn(-c4nccs4)c3c2)CC1` [Example 19i, 6-(N-Methyl-1,2,5,6-tetrahydropyridin-4-yl)-1-(2-thiazolyl)-indole], the inhibition at 0.1 µM was > 50%.

Turning to `CN1CC=C(c2ccc3ccn(-c4ccc(F)cc4)c3c2)CC1` [Example 19, 1-(4-Fluorophenyl)-6-(N-methyl-1,2,5,6-tetrahydropyridin-4-yl)-indole], the inhibition at 0.1 µM was > 75%.

In the case of `CN(C)CCc1ccc2ccn(-c3cccnc3)c2c1` [Example 19f, 6-(2-Dimethylaminoethyl)-1-(3-pyridinyl)-indole], the inhibition at 0.1 µM is > 90%.

Take `CC(C)n1ncc2ccc(CCN(C)C)cc21` [Example 14, 6-(2-(N,N-Dimethylamino)ethyl)-1-isopropyl-1H-indazole]: the inhibition at 0.1 µM is > 90%.

In the case of `CN1CC=C(c2ccc3ccn(-c4cccnc4)c3c2)CC1` [Example 19d, 6-(N-Methyl-1,2,5,6-tetrahydropyridin-4-yl)-1-(3-pyridyl)-indole], the inhibition at 0.1 µM was > 75%.

In the case of `CC(C)n1ccc2ccc(C3=CCN(C)CC3)cc21` [Example 16c, 6-[N-Methyl-1,2,5,6-tetrahydropyridin-4-yl]-1-isopropyl-indole], the inhibition at 0.1 µM is > 50%.

On to `CN(C)CCc1ccc2ccn(C3CCOCC3)c2c1` [Example 11b, 6-(2-Dimethylaminoethyl)-1-(tetrahydropyran4-yl)-indole], for which the inhibition at 0.1 µM was > 90%.

For `CN1CC=C(c2ccc3ccn(-c4ccsc4)c3c2)CC1` [Example 19c, 6-(N-Methyl-1,2,5,6-tetrahydropyridin-4-yl)-1-(3-thienyl)-indole], the inhibition at 0.1 µM was > 75%.

In a further assay the target is T1, 5-HT1D receptor. The experiment in a line: Functional assay: inhibition of forskolin-stimulated adenyl cyclase (cAMP) in CHO cells. The class given is cell-based. Conditions: CHO cells stably expressing the 5-HT1D receptor; test compound at 100 nM and 10 μM. Here is the method: The 5HT1D and 5HT1B receptor subtypes respond to serotonin and other agonists by reducing adenyl cyclase mediated production of cyclic AMP. Particular test compounds were assayed for their ability to inhibit adenyl cyclase activity using the procedure described below. Forskolin was used to elevate the basal adenyl cyclase activity.
Compounds acting as antagonists at the 5HT1D and 5HT1B receptor subtypes will antagonize the agonist effect of serotonin and thus, will block the serotonin-induced inhibition of forskolin-stimulated adenyl cyclase activity. […]
The culture media of each well was removed, and the wells were washed once with serum free media. […] Basal adenyl cyclase activity was determined from wells with only SFM+IBMX media added.
The cells were then incubated at 37° C. for 30 minutes in a CO2 incubator. […] The pellets were discarded and the supernatants were stored at 4° C. until assayed for cAMP concentration. cAMP content for each extract was determined in duplicate by EIA (enzyme-immunoassay) using the Amersham Biotrak cAMP EIA kit (Amersham RPN 225).
Total inhibition (Io) of forskolin-stimulated adenyl cyclase activity by serotonin was determined as the difference in concentration of cAMP in the forskolin-treated cells (Cf) and serotonin-forskolin treated cells (Cd). […]
In the case of `CC(C)n1ccc2ccc(CCN(C)C)cc21` [Example 2, 6-(2-(N,N-Dimethylamino)ethyl)-1-isopropyl-indole], the “effect on forskolin stimulated production of cAMP (agonist activity)” value is “caused a decrease in the forskolin stimulated production of cAMP”.

Usually inhibition stands for the change of the read-out against control, counted positive when it falls.
